Experimental findings from patent publication US20250051344A1, “BIFUNCTIONAL SELECTIVE DEGRADERS OF SMARCA2 AND THERAPEUTIC USES THEREOF” (Nurix Therapeutics, Inc., priority 2023, published 2025) are described below.

One experiment concerns the target T1, SMARCA4 (Homo sapiens, UniProt P51532).
T1 construct: endogenous in cells
Nature of the experiment: Cellular degradation assay, SMARCA4 (Table 1). In kind it is cell-based.

The target of another experiment is T2, SMARCA2 (Homo sapiens, UniProt P51531).
T2 construct: endogenous in cells
T2 sequence (P51531 whole entry, species assumed): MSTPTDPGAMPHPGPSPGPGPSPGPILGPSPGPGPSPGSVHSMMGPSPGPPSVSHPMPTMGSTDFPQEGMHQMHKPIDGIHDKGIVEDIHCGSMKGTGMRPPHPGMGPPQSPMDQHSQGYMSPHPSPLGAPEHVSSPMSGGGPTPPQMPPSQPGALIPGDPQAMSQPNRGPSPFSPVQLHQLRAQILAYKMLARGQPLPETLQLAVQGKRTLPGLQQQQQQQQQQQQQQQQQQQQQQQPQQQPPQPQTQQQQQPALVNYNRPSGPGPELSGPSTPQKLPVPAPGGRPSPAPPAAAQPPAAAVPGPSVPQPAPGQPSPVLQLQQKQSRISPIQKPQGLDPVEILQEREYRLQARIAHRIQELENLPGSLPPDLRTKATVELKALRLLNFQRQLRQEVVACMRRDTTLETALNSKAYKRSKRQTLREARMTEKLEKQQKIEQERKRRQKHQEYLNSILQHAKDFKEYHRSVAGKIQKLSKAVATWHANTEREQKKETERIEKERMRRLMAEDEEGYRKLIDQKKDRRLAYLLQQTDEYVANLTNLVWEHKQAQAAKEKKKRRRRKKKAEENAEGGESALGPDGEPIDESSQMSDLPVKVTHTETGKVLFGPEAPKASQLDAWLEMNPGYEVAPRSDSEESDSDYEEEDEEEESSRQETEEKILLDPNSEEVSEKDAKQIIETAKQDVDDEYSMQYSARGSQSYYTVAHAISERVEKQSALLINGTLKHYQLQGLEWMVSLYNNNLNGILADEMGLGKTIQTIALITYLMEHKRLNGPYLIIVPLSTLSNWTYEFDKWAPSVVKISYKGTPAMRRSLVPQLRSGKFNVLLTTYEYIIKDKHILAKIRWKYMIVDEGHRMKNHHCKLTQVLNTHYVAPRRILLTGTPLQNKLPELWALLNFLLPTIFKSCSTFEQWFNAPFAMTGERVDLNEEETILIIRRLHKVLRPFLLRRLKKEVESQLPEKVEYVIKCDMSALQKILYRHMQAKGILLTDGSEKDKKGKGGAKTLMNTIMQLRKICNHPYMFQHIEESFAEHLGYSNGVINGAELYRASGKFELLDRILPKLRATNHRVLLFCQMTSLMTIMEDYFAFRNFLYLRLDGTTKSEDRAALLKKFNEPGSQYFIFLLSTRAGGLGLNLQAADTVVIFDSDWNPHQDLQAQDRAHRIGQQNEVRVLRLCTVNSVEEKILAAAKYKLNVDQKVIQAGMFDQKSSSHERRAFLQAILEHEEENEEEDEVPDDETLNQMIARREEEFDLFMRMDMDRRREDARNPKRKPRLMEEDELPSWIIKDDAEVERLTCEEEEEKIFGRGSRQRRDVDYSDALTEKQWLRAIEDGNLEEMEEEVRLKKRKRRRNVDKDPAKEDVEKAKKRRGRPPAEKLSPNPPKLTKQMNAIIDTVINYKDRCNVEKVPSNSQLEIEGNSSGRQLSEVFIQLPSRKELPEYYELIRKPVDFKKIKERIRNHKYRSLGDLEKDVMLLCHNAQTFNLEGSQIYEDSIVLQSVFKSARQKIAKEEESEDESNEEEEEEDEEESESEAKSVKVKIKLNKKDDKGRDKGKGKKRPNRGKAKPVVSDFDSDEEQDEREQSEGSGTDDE
Nature of the experiment: SMARCA2 Cellular Degradation Assay (Western blot analysis on Jess platform). To be noted: for DC50 / Dmax: cellular degradation; for Fold Selectivity SMARCA4/2: ratio DC50 SMARCA4 / DC50 SMARCA2. In kind it is cell-based. The method in brief:
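Lysates of cells extracted from tumors, 5 μg total protein per capillary, were probed for SMARCA2 and β-actin by capillary Western on Jess using chemiluminescence and fluorescence detection. SMARCA2 peak area was background-subtracted and normalized to actin, then expressed as % remaining relative to vehicle control.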
On the technique in general: A western blot detects proteins with antibodies after separation by electrophoresis.

T1 sequence (P51532 whole entry, species assumed): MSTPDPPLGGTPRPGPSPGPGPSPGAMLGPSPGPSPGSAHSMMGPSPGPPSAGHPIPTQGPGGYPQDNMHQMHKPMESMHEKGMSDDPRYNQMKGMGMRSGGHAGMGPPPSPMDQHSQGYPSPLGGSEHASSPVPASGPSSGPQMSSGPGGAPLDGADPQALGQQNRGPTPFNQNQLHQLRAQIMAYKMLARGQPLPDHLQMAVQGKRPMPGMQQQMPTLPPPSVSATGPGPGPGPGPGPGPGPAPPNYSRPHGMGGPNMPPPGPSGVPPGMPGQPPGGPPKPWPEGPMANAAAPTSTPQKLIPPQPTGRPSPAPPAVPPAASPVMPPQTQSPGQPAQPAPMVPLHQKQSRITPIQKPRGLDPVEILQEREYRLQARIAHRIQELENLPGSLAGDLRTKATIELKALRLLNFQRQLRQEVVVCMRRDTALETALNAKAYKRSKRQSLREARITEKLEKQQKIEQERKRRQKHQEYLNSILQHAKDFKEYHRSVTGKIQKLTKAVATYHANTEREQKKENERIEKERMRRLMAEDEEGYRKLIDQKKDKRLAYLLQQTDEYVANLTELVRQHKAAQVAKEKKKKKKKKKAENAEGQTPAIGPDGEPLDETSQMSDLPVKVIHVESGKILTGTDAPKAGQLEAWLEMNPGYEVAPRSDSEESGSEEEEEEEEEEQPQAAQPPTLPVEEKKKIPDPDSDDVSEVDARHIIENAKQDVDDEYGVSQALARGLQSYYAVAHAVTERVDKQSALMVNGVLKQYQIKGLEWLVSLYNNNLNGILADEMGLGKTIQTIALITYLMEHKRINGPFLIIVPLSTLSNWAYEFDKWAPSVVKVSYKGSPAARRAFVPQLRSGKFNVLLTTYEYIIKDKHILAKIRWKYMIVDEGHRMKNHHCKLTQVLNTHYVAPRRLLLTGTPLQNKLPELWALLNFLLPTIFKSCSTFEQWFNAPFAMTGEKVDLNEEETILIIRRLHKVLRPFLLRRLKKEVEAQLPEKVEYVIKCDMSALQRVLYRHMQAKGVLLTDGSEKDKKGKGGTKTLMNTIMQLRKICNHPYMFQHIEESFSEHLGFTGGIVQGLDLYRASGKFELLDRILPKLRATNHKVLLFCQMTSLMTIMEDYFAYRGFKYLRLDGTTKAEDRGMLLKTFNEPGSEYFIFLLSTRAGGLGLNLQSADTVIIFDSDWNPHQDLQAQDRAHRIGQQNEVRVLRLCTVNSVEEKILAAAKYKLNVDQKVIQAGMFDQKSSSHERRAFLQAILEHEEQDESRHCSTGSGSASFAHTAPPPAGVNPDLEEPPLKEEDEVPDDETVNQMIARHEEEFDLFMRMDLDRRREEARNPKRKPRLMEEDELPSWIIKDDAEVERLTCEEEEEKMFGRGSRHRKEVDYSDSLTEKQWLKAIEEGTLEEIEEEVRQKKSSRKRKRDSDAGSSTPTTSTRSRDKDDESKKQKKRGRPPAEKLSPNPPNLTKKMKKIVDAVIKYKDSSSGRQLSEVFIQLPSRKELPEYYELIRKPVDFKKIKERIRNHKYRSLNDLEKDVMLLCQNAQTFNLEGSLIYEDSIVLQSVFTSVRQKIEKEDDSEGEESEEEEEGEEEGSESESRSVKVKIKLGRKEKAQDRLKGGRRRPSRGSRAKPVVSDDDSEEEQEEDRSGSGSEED

`O=C1CCC(c2ccc(N3CCC(CCN4CC5(C4)CN(C(=O)C4(c6cc7ccccn7n6)CCN(c6cnnc(-c7ccccc7O)c6)CC4)C5)CC3)cc2)C(=O)N1` (racemic) [Example 80, rac-(3R)-3-(4-{4-[2-(6-{1-[6-(2-hydroxyphenyl)pyridazin-4-yl]-4-{pyrazolo[1,5-a]pyridin-2-yl}piperidine-4-carbonyl}-2,6-diazaspiro[3.3]heptan-2-yl)ethyl]piperidin-1-yl}phenyl)piperidine-2,6-dione] showed a Dmax on SMARCA4 of 21.9%. At SMARCA2, the 50% degradation concentration (DC50) is 14.2 nM, the Dmax was found to be 60% and the “Fold Selectivity SMARCA4/2” value was 705.
Take `CCN(C(=O)C1(c2ccccc2)CCN(c2cnnc(-c3ccccc3O)c2)CC1)C1CCN(CC2CCN(c3ccc([C@H]4CCC(=O)NC4=O)cc3)CC2)CC1` [Example 184, N-{1-[(1-{4-[(3R)-2,6-dioxopiperidin-3-yl]phenyl}piperidin-4-yl)methyl]piperidin-4-yl}-N-ethyl-1-[6-(2-hydroxyphenyl)pyridazin-4-yl]-4-phenylpiperidine-4-carboxamide]: on SMARCA4, it took 37.6 nM to reach half-maximal degradation (DC50) and the Dmax stood at 80.7%. Besides, on SMARCA2, half-maximal degradation (DC50) was put at 4.88 nM, the Dmax turned out to be 91.3% and the “Fold Selectivity SMARCA4/2” value is on record as 8.
With `CN(C(=O)C1(c2ccc(F)cc2)CCN(c2cnnc(-c3ccccc3O)c2)CC1)C1CCN(CCC2CCN(c3ccc(C4CCC(=O)NC4=O)cc3)CC2)CC1` (racemic) [Example 134, rac-N-{1-[2-(1-{4-[(3R)-2,6-dioxopiperidin-3-yl]phenyl}piperidin-4-yl)ethyl]piperidin-4-yl}-4-(4-fluorophenyl)-1-[6-(2-hydroxyphenyl)pyridazin-4-yl]-n-methylpiperidine-4-carboxamide], the maximal degradation (Dmax) on SMARCA4 was 31.1%. Also, at SMARCA2, the DC50 amounted to 8.79 nM, the Dmax came to 87.1% and the “Fold Selectivity SMARCA4/2” value is 1138.
On SMARCA4, `CN(C(=O)C1(c2ccccc2)CCN(c2cnnc(-c3ccccc3O)c2)CC1)C1CCN(CC2CCN(c3cccc([C@@H]4CCC(=O)NC4=O)c3)CC2)CC1` (racemic) [Example 102, rac-(r)-n-(1-((1-(3-(2,6-dioxopiperidin-3-yl)phenyl)piperidin-4-yl)methyl)piperidin-4-yl)-1-(6-(2-hydroxyphenyl)pyridazin-4-yl)-n-methyl-4-phenylpiperidine-4-carboxamide] returned a 50% degradation concentration (DC50) of 295 nM and a Dmax of 54.4%. Besides, at SMARCA2, the DC50 is 26.3 nM, the greatest degradation seen (Dmax) was 77.7% and the “Fold Selectivity SMARCA4/2” value is given as 11.
For `CN(C(=O)C1(c2ccnn2C)CCN(c2cnnc(-c3ccccc3O)c2)CC1)C1CCN(CCC2CCN(c3cccc4c3n(C)c(=O)n4C3CCC(=O)NC3=O)CC2)CC1` (racemic) [Example 62, rac-N-{1-[2-(1-{1-[(3R)-2,6-dioxopiperidin-3-yl]-3-methyl-2-oxo-2,3-dihydro-1H-1,3-benzodiazol-4-yl}piperidin-4-yl)ethyl]piperidin-4-yl}-1-[6-(2-hydroxyphenyl)pyridazin-4-yl]-N-methyl-4-(1-methyl-1H-pyrazol-5-yl)piperidine-4-carboxamide], in that order: 151 nM, 52.3%, 0.25 nM, 93.2% and 602.
With `COC1(C(=O)NCC2(c3ccccc3)CCN(c3cnnc(-c4ccccc4O)c3)CC2)CCN(CCC2CCN(c3ccc([C@H]4CCC(=O)NC4=O)cc3)CC2)CC1` (racemic) [Example 83, rac-(r)-1-(2-(1-(4-(2,6-dioxopiperidin-3-yl)phenyl)piperidin-4-yl)ethyl)-n-((1-(6-(2-hydroxyphenyl)pyridazin-4-yl)-4-phenylpiperidin-4-yl)methyl)-4-methoxypiperidine-4-carboxamide], at SMARCA4, the half-maximal degradation concentration (DC50) amounted to 20.2 nM and the Dmax is 73.3%. Besides, on SMARCA2, half-maximal degradation (DC50) was put at 2.3 nM, the Dmax stood at 91.8% and the “Fold Selectivity SMARCA4/2” value worked out at 9.
On to `CC(C)c1cc(C2(C(=O)N3CC4(CN(CCC5CCN(c6ccc(C7CCC(=O)NC7=O)cc6)CC5)C4)C3)CCN(c3cnnc(-c4ccccc4O)c3)CC2)no1` (racemic) [Example 79, rac-(3R)-3-(4-{4-[2-(6-{1-[6-(2-hydroxyphenyl)pyridazin-4-yl]-4-[5-(propan-2-yl)-1,2-oxazol-3-yl]piperidine-4-carbonyl}-2,6-diazaspiro[3.3]heptan-2-yl)ethyl]piperidin-1-yl}phenyl)piperidine-2,6-dione], for which, on SMARCA4, the Dmax turned out to be 21.9%. On SMARCA2, the 50% degradation concentration (DC50) was 12.4 nM, the greatest degradation seen (Dmax) was 70.7% and the “Fold Selectivity SMARCA4/2” value amounted to 806.
With `O=C1CC[C@H](n2ccc3cc(N4CCC(CN5CCC(NC(=O)C6(c7ccccc7)CCN(c7cnnc(-c8ccccc8O)c7)CC6)CC5)CC4)ccc3c2=O)C(=O)N1` [Example 157, N-{1-[(1-{2-[(3S)-2,6-dioxopiperidin-3-yl]-1-oxo-1,2-dihydroisoquinolin-6-yl}piperidin-4-yl)methyl]piperidin-4-yl}-1-[6-(2-hydroxyphenyl)pyridazin-4-yl]-4-phenylpiperidine-4-carboxamide], on SMARCA4, the DC50 amounted to 8.12 nM and the Dmax was determined as 82.6%. In addition, on SMARCA2, the DC50 is 1.56 nM, the Dmax came to 91.8% and the “Fold Selectivity SMARCA4/2” value was determined as 5.
For `Cc1ccccc1OC1(C(=O)N(C)C2CCN(C(=O)CN3CCC(c4ccc([C@@H]5CCC(=O)NC5=O)cc4)CC3)CC2)CCN(c2cnnc(-c3ccccc3O)c2)CC1` (racemic) [Example 116, rac-n-(1-(2-(4-(4-(2,6-dioxopiperidin-3-yl)phenyl)piperidin-1-yl)acetyl)piperidin-4-yl)-1-(6-(2-hydroxyphenyl)pyridazin-4-yl)-n-methyl-4-(o-tolyloxy)piperidine-4-carboxamide], in that order: 57.4 nM, 75.8%, 7.97 nM, 88.6% and 7.
On to `O=C1CC[C@H](c2ccc(N3CCC(CN4CCN(C(=O)C5(c6ccccc6)CCN(c6cnnc(-c7ccccc7O)c6)CC5)CCC4C(F)(F)F)CC3)cc2)C(=O)N1` (stereo partly drawn) [Example 53, (3R)-3-(4-(4-((4-(1-(6-(2-hydroxyphenyl)pyridazin-4-yl)-4-phenylpiperidine-4-carbonyl)-7-(trifluoromethyl)-1,4-diazepan-1-yl)methyl)piperidin-1-yl)phenyl)piperidine-2,6-dione], for which the greatest degradation seen (Dmax) on SMARCA4 came out at 9.06%; at SMARCA2, 47.2%. In addition, at SMARCA2, the “Fold Selectivity SMARCA4/2” value is reported as 1.
On SMARCA4, `CCN(C(=O)C1(c2ccccc2)CCN(c2cnnc(-c3ccccc3O)c2)CC1)C1CCN(CCC2CCN(c3ccc([C@H]4CCC(=O)NC4=O)cc3)CC2)CC1` [Example 187, N-{1-[2-(1-{4-[(3R)-2,6-dioxopiperidin-3-yl]phenyl}piperidin-4-yl)ethyl]piperidin-4-yl}-n-ethyl-1-[6-(2-hydroxyphenyl)pyridazin-4-yl]-4-phenylpiperidine-4-carboxamide] returned a DC50 of 34.5 nM and a maximal degradation (Dmax) of 73.1%. Further, on SMARCA2, the DC50 turned out to be 1.3 nM, the maximal degradation (Dmax) came to 94.4% and the “Fold Selectivity SMARCA4/2” value is on record as 27.
Consider `Cc1cc(C2(C(=O)N(C)C3CCN(CCC4CCN(c5ccc(C6CCC(=O)NC6=O)cc5)CC4)CC3)CCN(c3cnnc(-c4ccccc4O)c3)CC2)on1` (racemic) [Example 88, rac-N-{1-[2-(1-{4-[(3R)-2,6-dioxopiperidin-3-yl]phenyl}piperidin-4-yl)ethyl]piperidin-4-yl}-1-[6-(2-hydroxyphenyl)pyridazin-4-yl]-N-methyl-4-(3-methyl-1,2-oxazol-5-yl)piperidine-4-carboxamide], for which, at SMARCA4, the greatest degradation seen (Dmax) turned out to be 20.2%. Moreover, on SMARCA2, the DC50 amounted to 7.76 nM, the greatest degradation seen (Dmax) was 78.4% and the “Fold Selectivity SMARCA4/2” value was found to be 1289.
At SMARCA4, `CN(C(=O)C1(OC2CCCCC2)CCN(c2cnnc(-c3ccccc3O)c2)CC1)C1CCN(C(=O)CN2CCC(c3ccc([C@@H]4CCC(=O)NC4=O)cc3)CC2)CC1` (racemic) [Example 117, rac-4-(cyclohexyloxy)-n-(1-(2-(4-(4-(2,6-dioxopiperidin-3-yl)phenyl)piperidin-1-yl)acetyl)piperidin-4-yl)-1-(6-(2-hydroxyphenyl)pyridazin-4-yl)-n-methylpiperidine-4-carboxamide] had a DC50 of 153 nM and a Dmax of 62.4%. In addition, on SMARCA2, half-maximal degradation (DC50) was put at 16.7 nM, the Dmax was 82.1% and the “Fold Selectivity SMARCA4/2” value worked out at 9.
Taken in the same sequence, the figures for `CN(C(=O)C1(Oc2ccccc2Cl)CCN(c2cnnc(-c3ccccc3O)c2)CC1)C1CCN(C(=O)CN2CCC(c3ccc([C@@H]4CCC(=O)NC4=O)cc3)CC2)CC1` (racemic) [Example 112] were 20.8 nM, 87.7%, 4.19 nM, 92% and 5.
Regarding `CC1(CN2CCC(c3ccc(C4CCC(=O)NC4=O)cc3)CC2)CCN(C(=O)C2(c3ccccc3)CCN(c3cnnc(-c4ccccc4O)c3)CC2)C1` (racemic) [Example 176, rac-(3R)-3-(4-{1-[(1-{1-[6-(2-hydroxyphenyl)pyridazin-4-yl]-4-phenylpiperidine-4-carbonyl}-3-methylpyrrolidin-3-yl)methyl]piperidin-4-yl}phenyl)piperidine-2,6-dione], the Dmax on SMARCA4 turned out to be 53%. Also, at SMARCA2, the DC50 is 22.3 nM, the greatest degradation seen (Dmax) is 76.8% and the “Fold Selectivity SMARCA4/2” value is reported as 449.
In the case of `O=C1CCC(c2ccc(OC3CCN(C(=O)C4(c5ccccc5)CCN(c5cnnc(-c6ccccc6O)c5)CC4)CC3)cc2)C(=O)N1` (racemic) [Example 4, rac-(3R)-3-{4-[(1-{1-[6-(2-hydroxyphenyl)pyridazin-4-yl]-4-phenylpiperidine-4-carbonyl}piperidin-4-yl)oxy]phenyl}piperidine-2,6-dione], the maximal degradation (Dmax) at SMARCA4 was found to be 9.4%. Moreover, at SMARCA2, the Dmax was 16.4% and the “Fold Selectivity SMARCA4/2” value was determined as 1.

What is called Dmax is the greatest extent of degradation seen. A higher Dmax goes with deep degradation. As a reminder, the DC50 is the concentration at which degradation of the target reaches its halfway point. Low readings indicate a more potent degrader, high ones a less potent degrader.
